Where two headings read alike, the source gives them in different places.
Tests used:
PI3K delta (PI3 Kd) = target: T1, PI3K delta (PI3 Kd) (Homo sapiens, UniProt O00329); assay: kinobeads assay, PI3K delta; format: binding; settings: kinobeads assay, read-out: Inhibition values (IC50) PI3Kd
T1 construct: endogenous in cells; host or cells: Jurkat, clone E6-1 (ATCC TIB-152) cell lysate
Method in brief: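 Competitive binding in Jurkat cell lysate (5 mg/ml total protein): test compounds at various concentrations competed with beads bearing immobilized phenylmorpholin-chromen ligand. Bead-bound kinases were eluted and quantified by antibody dot blot with infrared detection; IC50 values came from dose-response curves.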

mTOR = target: T2, mTOR (Homo sapiens, UniProt P42345); assay: mTOR kinobeads assay (competitive binding in Jurkat cell lysate, immunodetection); settings: kinobeads assay
T2 construct: endogenous in cells; host or cells: Jurkat, clone E6-1 (ATCC TIB-152) cell lysate
Method in brief: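 IC50 derived from dose-response curves of mTOR captured on immobilized phenylmorpholin-chromen beads, detected by antibody dot blot with infrared fluorescence.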

[1] = Table 6, read-out: Inhibition values (IC50) mTOR
[2] = Table 4, read-out: Inhibition values (IC50) mTor

T1 sequence (O00329 whole entry): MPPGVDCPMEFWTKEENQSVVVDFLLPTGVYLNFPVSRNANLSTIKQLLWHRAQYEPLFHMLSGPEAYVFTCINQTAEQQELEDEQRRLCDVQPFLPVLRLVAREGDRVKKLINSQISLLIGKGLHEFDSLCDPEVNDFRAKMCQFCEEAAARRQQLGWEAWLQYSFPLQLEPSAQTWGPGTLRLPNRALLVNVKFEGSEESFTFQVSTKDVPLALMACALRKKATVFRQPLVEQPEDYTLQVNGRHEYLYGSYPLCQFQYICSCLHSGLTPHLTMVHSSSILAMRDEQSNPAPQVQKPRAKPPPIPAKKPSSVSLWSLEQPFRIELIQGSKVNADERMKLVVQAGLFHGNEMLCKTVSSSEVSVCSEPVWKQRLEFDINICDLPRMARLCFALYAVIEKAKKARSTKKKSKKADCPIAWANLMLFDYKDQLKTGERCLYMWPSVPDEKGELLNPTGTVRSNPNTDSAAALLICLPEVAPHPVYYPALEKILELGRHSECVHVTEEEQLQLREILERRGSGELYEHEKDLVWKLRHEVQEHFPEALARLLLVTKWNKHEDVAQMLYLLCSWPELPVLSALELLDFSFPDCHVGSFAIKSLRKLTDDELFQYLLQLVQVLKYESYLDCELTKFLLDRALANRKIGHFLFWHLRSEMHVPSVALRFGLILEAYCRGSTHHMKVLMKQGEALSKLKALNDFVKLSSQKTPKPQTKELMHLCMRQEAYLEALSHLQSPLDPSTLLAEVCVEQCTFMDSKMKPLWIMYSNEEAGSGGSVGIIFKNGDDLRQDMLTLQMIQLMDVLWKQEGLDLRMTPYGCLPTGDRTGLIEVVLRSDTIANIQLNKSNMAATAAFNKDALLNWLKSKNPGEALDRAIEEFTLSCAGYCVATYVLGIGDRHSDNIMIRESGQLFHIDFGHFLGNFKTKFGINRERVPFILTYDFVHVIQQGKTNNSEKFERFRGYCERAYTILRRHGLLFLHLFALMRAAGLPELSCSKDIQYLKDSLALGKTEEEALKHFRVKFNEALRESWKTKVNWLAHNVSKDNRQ
T1 sequence (P27986 whole entry partner): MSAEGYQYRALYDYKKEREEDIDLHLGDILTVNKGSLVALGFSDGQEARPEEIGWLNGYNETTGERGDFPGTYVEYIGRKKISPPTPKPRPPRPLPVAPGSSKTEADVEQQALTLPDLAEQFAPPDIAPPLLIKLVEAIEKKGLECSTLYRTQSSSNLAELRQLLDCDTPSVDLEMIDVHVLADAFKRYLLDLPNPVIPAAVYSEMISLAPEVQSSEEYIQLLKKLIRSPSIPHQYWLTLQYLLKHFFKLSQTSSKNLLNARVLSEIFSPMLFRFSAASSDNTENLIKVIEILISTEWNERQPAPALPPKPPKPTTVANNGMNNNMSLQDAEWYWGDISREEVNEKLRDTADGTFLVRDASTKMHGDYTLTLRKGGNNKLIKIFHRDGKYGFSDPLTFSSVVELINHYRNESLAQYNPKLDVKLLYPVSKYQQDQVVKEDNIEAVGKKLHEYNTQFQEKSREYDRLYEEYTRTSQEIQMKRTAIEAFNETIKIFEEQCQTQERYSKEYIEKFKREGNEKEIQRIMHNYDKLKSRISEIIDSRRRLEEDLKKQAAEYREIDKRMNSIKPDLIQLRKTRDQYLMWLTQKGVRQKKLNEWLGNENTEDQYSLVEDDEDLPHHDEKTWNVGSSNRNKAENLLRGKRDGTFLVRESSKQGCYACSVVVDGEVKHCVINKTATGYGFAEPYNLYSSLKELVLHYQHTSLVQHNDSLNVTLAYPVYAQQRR

Row | SMILES | IC50 (PI3K delta (PI3 Kd); Table 6) | IC50 (mTOR; [1]) | IC50 (PI3K delta (PI3 Kd); Table 4) | IC50 (mTOR; [2])
1 | CCNC(=O)Nc1ccc(-c2nc3c(c(N4CCOCC4)n2)CCN(C(=O)OCC)C3)cc1 [Example 96, ethyl 2-(4-(3-ethylureido)phenyl)-4-morpholino-5,6-dihydropyrido[3,4-d]pyrimidine-7(8H)-carboxylate] | > 10000 nM | 100 to 1000 nM | – | –
2 | C[C@H]1COCCN1c1nc(-c2ccc(NC(=O)NC3CC3)cc2)nc2c1CCN(C(=O)C(C)(C)C)C2 [Example 64, (S)-1-cyclopropyl-3-(4-(4-(3-methylmorpholino)-7-pivaloyl-5,6,7,8-tetrahydropyrido[3,4-d]pyrimidin-2-yl)phenyl)urea] | > 10000 nM | < 100 nM | – | –
3 | CCNC(=O)Nc1ccc(-c2nc3c(c(N4CCOCC4)n2)CCN(C(=O)C(C)(C)C)C3)cc1 [Example 98, 1-ethyl-3-(4-(4-morpholino-7-pivaloyl-5,6,7,8-tetrahydropyrido[3,4-d]pyrimidin-2-yl)phenyl)urea] | > 10000 nM | < 100 nM | – | –
4 | CCOC(=O)N1Cc2nc(-c3ccc(NC(=O)NC4CC4)c(F)c3)nc(N3CCOC[C@@H]3C)c2C1 [Example 105, (S)-ethyl 2-(4-(3-cyclopropylureido)-3-fluorophenyl)-4-(3-methylmorpholino)-5H-pyrrolo[3,4-d]pyrimidine-6(7H)-carboxylate] | > 10000 nM | 100 to 1000 nM | – | –
5 | C[C@H]1COCCN1c1nc(-c2ccc(NC(=O)NC3CC3)cc2)nc2c1CN(CC(F)(F)F)C2 [Example 101, (S)-1-cyclopropyl-3-(4-(4-(3-methylmorpholino)-6-(2,2,2-trifluoroethyl)-6,7-dihydro-5H-pyrrolo[3,4-d]pyrimidin-2-yl)phenyl)urea] | > 10000 nM | 100 to 1000 nM | – | –
6 | CCNC(=O)Nc1ccc(-c2nc3c(c(N4CCOC[C@@H]4C)n2)CCN(C(=O)CO)C3)cc1 [Example 102, (S)-1-ethyl-3-(4-(7-(2-hydroxyacetyl)-4-(3-methylmorpholino)-5,6,7,8-tetrahydropyrido[3,4-d]pyrimidin-2-yl)phenyl)urea] | > 10000 nM | < 100 nM | – | –
7 | C[C@H]1COCCN1c1nc(-c2ccc(NC(N)=O)cc2)nc2c1CN(C)C2 [Example 71, (S)-1-(4-(6-methyl-4-(3-methylmorpholino)-6,7-dihydro-5H-pyrrolo[3,4-d]pyrimidin-2-yl)phenyl)urea] | 1000 to 10000 nM | < 100 nM | – | –
8 | C[C@H]1COCCN1c1nc(-c2ccc(NC(=O)Nc3ccn(C)n3)cc2)nc2c1CN(C)C2 [Example 84, (S)-1-(1-methyl-1H-pyrazol-3-yl)-3-(4-(6-methyl-4-(3-methylmorpholino)-6,7-dihydro-5H-pyrrolo[3,4-d]pyrimidin-2-yl)phenyl)urea] | > 10000 nM | 100 to 1000 nM | – | –
9 | CCNC(=O)N1CCc2c(nc(-c3ccc(NC(=O)NC4CC4)cc3)nc2N2CCOC[C@@H]2C)C1 [Example 88, (S)-2-(4-(3-cyclopropylureido)phenyl)-N-ethyl-4-(3-methylmorpholino)-5,6-dihydropyrido[3,4-d]pyrimidine-7(8H)-carboxamide] | > 10000 nM | < 100 nM | – | –
10 | CC(=O)N1CCc2c(nc(-c3ccc(NC(=O)NC4CC4)cc3)nc2N2CCOC[C@@H]2C)C1 [Example 62, (S)-1-(4-(7-acetyl-4-(3-methylmorpholino)-5,6,7,8-tetrahydropyrido[3,4-d]pyrimidin-2-yl)phenyl)-3-cyclopropylurea] | > 10000 nM | < 100 nM | > 10000 nM | < 100 nM
11 | CC(C)CN1Cc2nc(-c3ccc(NC(=O)NC4CC4)cc3)nc(N3CCOC[C@@H]3C)c2C1 [Example 65, (S)-1-cyclopropyl-3-(4-(6-isobutyl-4-(3-methylmorpholino)-6,7-dihydro-5H-pyrrolo[3,4-d]pyrimidin-2-yl)phenyl)urea] | > 10000 nM | < 100 nM | – | –
12 | CCOC(=O)N1Cc2nc(-c3ccc(NC(=O)NCCO)c(F)c3)nc(N3CCOC[C@@H]3C)c2C1 [Example 104, (S)-ethyl-2-(3-fluoro-4-(3-(2-hydroxyethyl)ureido)phenyl)-4-(3-methylmorpholino)-5H-pyrrolo[3,4-d]pyrimidine-6(7H)-carboxylate] | > 10000 nM | 100 to 1000 nM | – | –
13 | CCNC(=O)Nc1ccc(-c2nc3c(c(N4CCOC[C@@H]4C)n2)CCN(C(C)=O)C3)cc1 [Example 59, (S)-1-(4-(7-acetyl-4-(3-methylmorpholino)-5,6,7,8-tetrahydropyrido[3,4-d]pyrimidin-2-yl)phenyl)-3-ethylurea] | > 10000 nM | < 100 nM | > 10000 nM | < 100 nM
14 | CCNC(=O)Nc1ccc(-c2nc3c(c(N4CCOC[C@@H]4C)n2)CCN(C(=O)NCC)C3)cc1 [Example 87, (S)—N-ethyl-2-(4-(3-ethylureido)phenyl)-4-(3-methylmorpholino)-5,6-dihydropyrido[3,4-d]pyrimidine-7(8H)-carboxamide] | > 10000 nM | < 100 nM | – | –
15 | CCNC(=O)Nc1ccc(-c2nc3c(c(N4CCOC[C@@H]4C)n2)CN(C(=O)OCC)C3)cc1F [Example 103, (S)-ethyl-2-(4-(3-ethylureido)-3-fluorophenyl)-4-(3-methylmorpholino)-5H-pyrrolo[3,4-d]pyrimidine-6(7H)-carboxylate] | > 10000 nM | 100 to 1000 nM | – | –
16 | C[C@H]1COCCN1c1nc(-c2ccc(NC(=O)NC3CC3)cc2)nc2c1CN(C(=O)C1CCOCC1)C2 [Example 129, (S)-1-cyclopropyl-3-(4-(4-(3-methylmorpholino)-6-(tetrahydro-2H-pyran-4-carbonyl)-6,7-dihydro-5H-pyrrolo[3,4-d]pyrimidin-2-yl)phenyl)urea] | > 10000 nM | < 100 nM | – | –
17 | C[C@H]1COCCN1c1nc(-c2ccc(NC(=O)NCCO)cc2)nc2c1CN(C)C2 [Example 73, (S)-1-(2-hydroxyethyl)-3-(4-(6-methyl-4-(3-methylmorpholino)-6,7-dihydro-5H-pyrrolo[3,4-d]pyrimidin-2-yl)phenyl)urea] | 1000 to 10000 nM | < 100 nM | – | –
18 | CCNC(=O)Nc1ccc(-c2nc3c(c(N4CCOC[C@@H]4C)n2)CN(C(=O)OCC)C3)cc1 [Example 90, (S)-ethyl 2-(4-(3-ethylureido)phenyl)-4-(3-methylmorpholino)-5H-pyrrolo[3,4-d]pyrimidine-6(7H)-carboxylate] | > 10000 nM | < 100 nM | – | –
19 | COC(=O)N1CCc2c(nc(-c3ccc(NC(=O)NC4CC4)cc3)nc2N2CCOC[C@@H]2C)C1 [Example 83, (S)-methyl 2-(4-(3-cyclopropylureido)phenyl)-4-(3-methylmorpholino)-5,6-dihydropyrido[3,4-d]pyrimidine-7(8H)-carboxylate] | > 10000 nM | < 100 nM | – | –
20 | CCOC(=O)N1Cc2nc(-c3ccc(NC(=O)NCCF)cc3)nc(N3CCOC[C@@H]3C)c2C1 [Example 120, (S)-ethyl 2-(4-(3-(2-fluoroethyl)ureido)phenyl)-4-(3-methylmorpholino)-5H-pyrrolo[3,4-d]pyrimidine-6(7H)-carboxylate] | > 10000 nM | < 100 nM | – | –
21 | CCOC(=O)N1CCc2c(nc(-c3ccc(NC(=O)NC4CC4)cc3)nc2N2CCOC[C@@H]2C)C1 [Example 78, (S)-ethyl 2-(4-(3-cyclopropylureido)phenyl)-4-(3-methylmorpholino)-5,6-dihydropyrido[3,4-d]pyrimidine-7(8H)-carboxylate] | > 10000 nM | < 100 nM | – | –

From patent US8785457B2 (Cellzome Limited, priority 2009, dated 2014)
